Earlier results, collected in patent US20200319065A1, “STABLE DITHIZONE SOLUTIONS AND FORMULATIONS AND METHODS FOR THEIR USE” (CITY OF HOPE, priority 2019, published 2020).

## S=C(N=Nc1ccccc1)NNc1ccccc1 [DTZ, Dithizone]
ethanol, chloroform and DMSO
  solubility in organic solvents: solubilizes partially
water
  solubility in water: relatively insoluble
